Source: patent US9340590B2 (priority 2011, dated 2016)
Where two headings read alike, the source gives them in different places. Positions of bridges follow the written chain, without caps; N, C: chain ends. Non-standard residues stand in square brackets, D forms with d. Residues, ends and D or L forms follow the SMILES beside them. 1Nal = N[C@@H](Cc1cccc2ccccc12)C(=O)O

Key:
Experiment in all cases: cell-based
hNav1.7 = hNav1.7 (Homo sapiens, UniProt Q15858); assay type: cell-based
hNav1.5 = hNav1.5 (Homo sapiens, UniProt Q14524)
hNav1.5, sequence (Q14524 whole entry, looked up): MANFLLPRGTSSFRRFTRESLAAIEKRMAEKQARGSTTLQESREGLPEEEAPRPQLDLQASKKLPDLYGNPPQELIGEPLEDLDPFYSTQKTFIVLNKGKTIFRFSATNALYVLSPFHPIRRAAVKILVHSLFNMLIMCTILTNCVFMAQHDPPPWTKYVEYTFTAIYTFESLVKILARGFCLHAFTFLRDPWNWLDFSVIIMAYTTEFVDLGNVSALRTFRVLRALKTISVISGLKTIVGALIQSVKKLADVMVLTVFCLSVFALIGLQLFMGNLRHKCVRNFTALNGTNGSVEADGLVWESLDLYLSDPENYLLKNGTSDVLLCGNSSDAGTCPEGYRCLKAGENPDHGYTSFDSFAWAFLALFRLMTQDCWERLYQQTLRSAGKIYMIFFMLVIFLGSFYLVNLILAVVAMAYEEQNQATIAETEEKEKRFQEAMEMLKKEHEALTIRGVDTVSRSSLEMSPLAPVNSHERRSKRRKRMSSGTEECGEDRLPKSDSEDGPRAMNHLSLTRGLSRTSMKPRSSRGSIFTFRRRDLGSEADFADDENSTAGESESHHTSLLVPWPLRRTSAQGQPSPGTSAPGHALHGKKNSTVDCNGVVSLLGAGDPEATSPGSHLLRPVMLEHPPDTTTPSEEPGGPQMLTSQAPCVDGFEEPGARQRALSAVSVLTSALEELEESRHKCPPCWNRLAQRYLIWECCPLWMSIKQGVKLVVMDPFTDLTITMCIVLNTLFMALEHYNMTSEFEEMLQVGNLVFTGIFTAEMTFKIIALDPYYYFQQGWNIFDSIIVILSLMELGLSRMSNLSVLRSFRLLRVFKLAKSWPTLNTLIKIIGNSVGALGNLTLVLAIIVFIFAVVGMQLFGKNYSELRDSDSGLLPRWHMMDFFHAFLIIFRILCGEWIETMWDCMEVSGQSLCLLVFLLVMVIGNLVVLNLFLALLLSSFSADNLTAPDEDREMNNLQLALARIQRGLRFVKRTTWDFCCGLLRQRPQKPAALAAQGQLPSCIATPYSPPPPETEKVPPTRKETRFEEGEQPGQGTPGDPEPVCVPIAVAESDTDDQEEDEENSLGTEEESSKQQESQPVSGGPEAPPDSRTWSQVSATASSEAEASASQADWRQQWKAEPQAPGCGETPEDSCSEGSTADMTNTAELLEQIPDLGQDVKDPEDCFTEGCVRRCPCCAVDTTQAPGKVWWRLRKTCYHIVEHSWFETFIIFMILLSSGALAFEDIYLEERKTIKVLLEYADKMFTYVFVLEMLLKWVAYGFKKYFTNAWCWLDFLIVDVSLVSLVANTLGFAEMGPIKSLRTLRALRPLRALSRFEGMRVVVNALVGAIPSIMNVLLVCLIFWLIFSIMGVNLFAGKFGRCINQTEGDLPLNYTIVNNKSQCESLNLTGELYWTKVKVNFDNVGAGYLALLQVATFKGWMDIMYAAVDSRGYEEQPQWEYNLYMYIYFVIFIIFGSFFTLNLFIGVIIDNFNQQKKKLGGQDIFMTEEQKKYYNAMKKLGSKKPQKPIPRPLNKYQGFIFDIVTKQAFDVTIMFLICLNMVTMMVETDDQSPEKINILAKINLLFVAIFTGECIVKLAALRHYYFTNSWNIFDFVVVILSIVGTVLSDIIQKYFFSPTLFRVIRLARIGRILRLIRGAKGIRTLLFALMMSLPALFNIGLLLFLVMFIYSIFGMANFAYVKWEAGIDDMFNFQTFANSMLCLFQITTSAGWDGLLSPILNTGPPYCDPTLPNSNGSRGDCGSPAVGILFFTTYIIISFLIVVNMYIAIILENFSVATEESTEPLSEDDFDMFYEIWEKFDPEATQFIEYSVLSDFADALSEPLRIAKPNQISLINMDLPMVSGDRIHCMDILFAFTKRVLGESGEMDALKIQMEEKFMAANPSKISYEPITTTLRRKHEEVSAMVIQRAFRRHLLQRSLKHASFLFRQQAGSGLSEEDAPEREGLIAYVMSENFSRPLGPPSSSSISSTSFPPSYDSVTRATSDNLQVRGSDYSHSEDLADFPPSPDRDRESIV

hNav1.3 = hNav1.3 (Homo sapiens, UniProt Q9NY46); settings: IonWorks Quattro, read-out: IWQ Use Nav1.3
hNav1.3, sequence (Q9NY46 whole entry, looked up): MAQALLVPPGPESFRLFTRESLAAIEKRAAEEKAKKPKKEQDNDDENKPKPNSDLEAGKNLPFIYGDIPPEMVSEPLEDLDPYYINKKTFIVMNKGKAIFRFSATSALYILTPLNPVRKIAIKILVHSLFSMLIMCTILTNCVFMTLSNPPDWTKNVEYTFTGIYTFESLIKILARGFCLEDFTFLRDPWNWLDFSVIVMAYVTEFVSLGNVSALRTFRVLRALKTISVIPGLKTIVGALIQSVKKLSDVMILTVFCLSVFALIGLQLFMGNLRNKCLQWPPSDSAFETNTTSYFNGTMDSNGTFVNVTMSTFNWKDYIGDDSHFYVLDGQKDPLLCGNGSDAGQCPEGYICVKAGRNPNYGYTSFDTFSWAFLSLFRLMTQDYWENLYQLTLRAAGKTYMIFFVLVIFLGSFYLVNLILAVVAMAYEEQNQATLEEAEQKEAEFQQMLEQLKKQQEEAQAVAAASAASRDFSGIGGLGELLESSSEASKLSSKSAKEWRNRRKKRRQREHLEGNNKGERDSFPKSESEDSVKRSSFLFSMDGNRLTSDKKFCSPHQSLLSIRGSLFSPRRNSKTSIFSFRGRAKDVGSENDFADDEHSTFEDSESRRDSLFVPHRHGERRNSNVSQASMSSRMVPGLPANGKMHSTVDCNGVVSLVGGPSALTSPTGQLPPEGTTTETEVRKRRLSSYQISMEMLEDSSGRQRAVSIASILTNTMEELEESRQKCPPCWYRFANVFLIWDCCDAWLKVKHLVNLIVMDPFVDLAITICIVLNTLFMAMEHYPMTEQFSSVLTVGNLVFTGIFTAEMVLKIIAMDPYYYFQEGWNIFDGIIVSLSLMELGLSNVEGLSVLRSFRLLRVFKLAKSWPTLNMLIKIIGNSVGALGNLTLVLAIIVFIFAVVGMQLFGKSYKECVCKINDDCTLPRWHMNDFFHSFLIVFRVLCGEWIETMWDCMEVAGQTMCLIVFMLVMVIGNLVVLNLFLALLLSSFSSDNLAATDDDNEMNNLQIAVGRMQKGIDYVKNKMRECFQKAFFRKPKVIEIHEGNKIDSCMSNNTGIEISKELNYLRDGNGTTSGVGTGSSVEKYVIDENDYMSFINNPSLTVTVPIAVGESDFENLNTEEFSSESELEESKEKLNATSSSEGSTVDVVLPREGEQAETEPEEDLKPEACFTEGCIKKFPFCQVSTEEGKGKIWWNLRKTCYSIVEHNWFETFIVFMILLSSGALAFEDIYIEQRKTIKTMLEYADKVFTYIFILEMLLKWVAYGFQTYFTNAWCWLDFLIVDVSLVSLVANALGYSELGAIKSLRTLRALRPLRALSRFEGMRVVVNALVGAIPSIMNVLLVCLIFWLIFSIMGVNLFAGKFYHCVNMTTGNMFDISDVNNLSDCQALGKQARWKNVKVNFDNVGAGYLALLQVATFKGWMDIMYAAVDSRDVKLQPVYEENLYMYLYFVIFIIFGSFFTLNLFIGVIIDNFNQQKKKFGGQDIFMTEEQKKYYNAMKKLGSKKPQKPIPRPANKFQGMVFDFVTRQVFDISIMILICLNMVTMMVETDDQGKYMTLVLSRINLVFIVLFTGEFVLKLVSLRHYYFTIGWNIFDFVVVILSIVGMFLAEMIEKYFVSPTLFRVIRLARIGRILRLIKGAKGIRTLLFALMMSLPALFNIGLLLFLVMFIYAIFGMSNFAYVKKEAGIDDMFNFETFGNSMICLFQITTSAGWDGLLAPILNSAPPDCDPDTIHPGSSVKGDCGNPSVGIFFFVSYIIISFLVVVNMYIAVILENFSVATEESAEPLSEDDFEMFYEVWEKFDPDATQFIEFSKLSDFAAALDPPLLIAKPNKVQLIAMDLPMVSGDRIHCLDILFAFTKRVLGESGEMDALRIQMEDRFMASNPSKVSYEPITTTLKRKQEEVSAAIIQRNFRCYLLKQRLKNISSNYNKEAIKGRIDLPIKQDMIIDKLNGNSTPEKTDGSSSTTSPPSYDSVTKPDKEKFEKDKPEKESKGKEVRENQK

[1] = IonWorks Quattro, Use, read-out: IWQ Use Nav1.7
[2] = IonWorks Quattro, Use, read-out: IWQ Use Nav1.5

Row | SMILES | IC50 (hNav1.7; [1]) [nM] | IC50 (hNav1.5; [2]) [µM] | IC50 (hNav1.3; Use) [nM] | further results
1 | CC[C@H](C)[C@@H]1NC(=O)[C@@H]2CSSC[C@@H]3NC(=O)[C@H](C(C)C)NC(=O)[C@H](CC(C)C)NC(=O)[C@H](CC(N)=O)NC(=O)[C@@H]4CCCN4C(=O)[C@H](CCCNC(=N)N)NC(=O)[C@H](CSSC[C@H](NC(=O)[C@@H](N)CC(=O)O)C(=O)N[C@@H](CC(C)C)C(=O)NCC(=O)N[C@@H](Cc4ccccc4)C(=O)N[C@@H](CCSC)C(=O)N[C@@H](CCCNC(=N)N)C(=O)N[C@@H](CCCCN)C(=O)N2)NC(=O)[C@H](CSSC[C@@H](C(=O)N[C@@H](CCCCN)C(=O)N[C@@H](Cc2ccc(O)cc2)C(=O)N[C@H](C(=O)N[C@@H](Cc2ccccc2)C(N)=O)C(C)C)NC(=O)[C@H](Cc2c[nH]c4ccccc24)NC(=O)[C@H](CCCCN)NC(=O)[C@H](Cc2c[nH]cn2)NC(=O)[C@H]([C@@H](C)O)NC(=O)[C@H](CCCNC(=N)N)NC(=O)[C@H](CO)NC3=O)NC(=O)[C@H](CCCCN)NC(=O)[C@H](CC(=O)O)NC(=O)[C@H](CC(N)=O)NC(=O)[C@H](Cc2cccc3ccccc23)NC(=O)[C@@H]2CCCN2C1=O [compound 162] (H-DCLGFMRKCIP[1Nal]NDKCCRPNLVCSRTHKWCKYVF-NH2; disulfide 2-17, 9-23, 16-30) | 60 | 9.88 | 40 | –
2 | CC[C@H](C)[C@@H]1NC(=O)[C@@H]2CSSC[C@@H]3NC(=O)[C@H](C(C)C)NC(=O)[C@H](CC(C)C)NC(=O)[C@H](CC(N)=O)NC(=O)[C@@H]4CCCN4C(=O)[C@H](CCCNC(=N)N)NC(=O)[C@H](CSSC[C@H](NC(=O)[C@@H](N)CC(=O)O)C(=O)N[C@@H](CC(C)C)C(=O)NCC(=O)N[C@@H](Cc4ccccc4)C(=O)N[C@@H](CCSC)C(=O)N[C@@H](CCCNC(=N)N)C(=O)N[C@@H](CCCCN)C(=O)N2)NC(=O)[C@H](CSSC[C@@H](C(=O)N[C@@H](CCCCN)C(=O)N[C@@H](Cc2ccc(O)cc2)C(=O)N[C@H](C(=O)N[C@@H](Cc2ccccc2)C(N)=O)C(C)C)NC(=O)[C@H](Cc2c[nH]c4ccccc24)NC(=O)[C@H](CCCCN)NC(=O)[C@H](Cc2c[nH]cn2)NC(=O)[C@H]([C@@H](C)O)NC(=O)[C@H](CCCNC(=N)N)NC(=O)[C@H](CO)NC3=O)NC(=O)[C@H](CCCCN)NC(=O)[C@H](CC(=O)O)NC(=O)[C@H](Cc2cccc3ccccc23)NC(=O)[C@H](CC(=O)O)NC(=O)[C@@H]2CCCN2C1=O [compound 163] (H-DCLGFMRKCIPD[1Nal]DKCCRPNLVCSRTHKWCKYVF-NH2; disulfide 2-17, 9-23, 16-30) | 110 | 8.27 | 90 | –
3 | CC[C@H](C)[C@@H]1NC(=O)[C@@H]2CSSC[C@@H]3NC(=O)[C@H](C(C)C)NC(=O)[C@H](Cc4cccc5ccccc45)NC(=O)[C@H](CC(N)=O)NC(=O)[C@@H]4CCCN4C(=O)[C@H](CCCNC(=N)N)NC(=O)[C@H](CSSC[C@H](NC(=O)[C@@H](N)CC(=O)O)C(=O)N[C@@H](CC(C)C)C(=O)NCC(=O)N[C@@H](Cc4ccccc4)C(=O)N[C@@H](CCSC)C(=O)N[C@@H](CCCNC(=N)N)C(=O)N[C@@H](CCCCN)C(=O)N2)NC(=O)[C@H](CSSC[C@@H](C(=O)N[C@@H](CCCCN)C(=O)N[C@@H](Cc2ccc(O)cc2)C(=O)N[C@H](C(=O)N[C@@H](Cc2ccccc2)C(N)=O)C(C)C)NC(=O)[C@H](Cc2c[nH]c4ccccc24)NC(=O)[C@H](CCCCN)NC(=O)[C@H](Cc2c[nH]cn2)NC(=O)[C@H]([C@@H](C)O)NC(=O)[C@H](CCCNC(=N)N)NC(=O)[C@H](CO)NC3=O)NC(=O)[C@H](CCCCN)NC(=O)[C@H](CC(=O)O)NC(=O)[C@H](CC(N)=O)NC(=O)[C@H](CC(=O)O)NC(=O)[C@@H]2CCCN2C1=O [compound 165] (H-DCLGFMRKCIPDNDKCCRPN[1Nal]VCSRTHKWCKYVF-NH2; disulfide 2-17, 9-23, 16-30) | – | 10.6 | 90 | IC50 (hNav1.7): 80 nM
4 | CC[C@H](C)[C@@H]1NC(=O)[C@@H]2CSSC[C@@H]3NC(=O)[C@H](C(C)C)NC(=O)[C@H](CC(C)C)NC(=O)[C@H](CC(N)=O)NC(=O)[C@@H]4CCCN4C(=O)[C@H](CCCNC(=N)N)NC(=O)[C@H](CSSC[C@H](NC(=O)[C@@H](N)CC(=O)O)C(=O)N[C@@H](CC(C)C)C(=O)NCC(=O)N[C@@H](Cc4ccccc4)C(=O)N[C@@H](CCSC)C(=O)N[C@@H](CCCNC(=N)N)C(=O)N[C@@H](CCCCN)C(=O)N2)NC(=O)[C@H](CSSC[C@@H](C(=O)N[C@@H](CCCCN)C(=O)N[C@@H](Cc2ccc(O)cc2)C(=O)N[C@H](C(=O)N[C@@H](Cc2ccccc2)C(N)=O)C(C)C)NC(=O)[C@H](Cc2c[nH]c4ccccc24)NC(=O)[C@H](CCCCN)NC(=O)[C@H](Cc2cccc4ccccc24)NC(=O)[C@H]([C@@H](C)O)NC(=O)[C@H](CCCNC(=N)N)NC(=O)[C@H](CO)NC3=O)NC(=O)[C@H](CCCCN)NC(=O)[C@H](CC(=O)O)NC(=O)[C@H](CC(N)=O)NC(=O)[C@H](CC(=O)O)NC(=O)[C@@H]2CCCN2C1=O [compound 166] (H-DCLGFMRKCIPDNDKCCRPNLVCSRT[1Nal]KWCKYVF-NH2; disulfide 2-17, 9-23, 16-30) | – | – | – | IC50 (hNav1.7; Table 23, IonWorks Quattro, use, […], read-out: IWQ Use Nav1.7): 300 nM; IC50 (hNav1.5; Table 23, IonWorks Quattro, use, […], read-out: IWQ Use Nav1.5): 0.88 µM; IC50 (hNav1.3; Table 23, use, […]): 430 nM
5 | CC[C@H](C)[C@@H]1NC(=O)[C@@H]2CSSC[C@@H]3NC(=O)[C@H](C(C)C)NC(=O)[C@H](CC(C)C)NC(=O)[C@H](CC(N)=O)NC(=O)[C@@H]4CCCN4C(=O)[C@H](CCCNC(=N)N)NC(=O)[C@H](CSSC[C@H](NC(=O)[C@@H](N)CC(=O)O)C(=O)N[C@@H](CC(C)C)C(=O)NCC(=O)N[C@@H](Cc4ccccc4)C(=O)N[C@@H](CCSC)C(=O)N[C@@H](CCCNC(=N)N)C(=O)N[C@@H](CCCCN)C(=O)N2)NC(=O)[C@H](CSSC[C@@H](C(=O)N[C@@H](CCCCN)C(=O)N[C@@H](Cc2ccc(O)cc2)C(=O)N[C@@H](Cc2cccc4ccccc24)C(=O)N[C@@H](Cc2ccccc2)C(N)=O)NC(=O)[C@H](Cc2c[nH]c4ccccc24)NC(=O)[C@H](CCCCN)NC(=O)[C@H](Cc2cnc[nH]2)NC(=O)[C@H]([C@@H](C)O)NC(=O)[C@H](CCCNC(=N)N)NC(=O)[C@H](CO)NC3=O)NC(=O)[C@H](CCCCN)NC(=O)[C@H](CC(=O)O)NC(=O)[C@H](CC(N)=O)NC(=O)[C@H](CC(=O)O)NC(=O)[C@@H]2CCCN2C1=O [compound 168] (H-DCLGFMRKCIPDNDKCCRPNLVCSRTHKWCKY[1Nal]F-NH2; disulfide 2-17, 9-23, 16-30) | – | – | – | IC50 (hNav1.7; Table 26, IonWorks Quattro, use, […], read-out: IWQ Use Nav1.7): 60 nM; IC50 (hNav1.5; IWQ Use Nav1.5 (μM)): 15.7 µM; IC50 (hNav1.3; Table 26, use, […]): 20 nM
